Tests used:
[1] = system: wild type L. plantarum WCFS1; assay: Growth rate of wild type L. plantarum on modified CDM (lacking folate dependent metabolites) with methotrexate; type: cell-based, Lactobacillus plantarum; conditions: for growth inhibition of the wild type strain: modified CDM
Procedure: (§1) Wild type L. plantarum WCFS1 strains and its derivatives were grown at 37° C. on Chemically Defined Media (CDM), containing 19 g/L β-phosphoglycerate (6) or modified CDM. In this modified CDM, glycine, inosine, orotic acid, thymidine, guanine, adenine, uracil and xantine were omitted from the normal CDM. Additionally […] chloroamphenicol was added to all the media used. Methotrexate (Sigma, […]) was added to both types of CDM, in concentrations ranging from 0 to 10 mg/l.
(§2) Microtiter plates were used to determine the growth rate of the three L. plantarum strains harbouring the different vectors. The growth of the three strains was monitored in a 96 well microtiter plate for 35 hours using a spectrophotometer (SPECTRAmax®, Molecular Devices, Sunnyvale, Calif., USA). The growth was tested on the two types of media, and each construct was analyzed in triplicate on both media for the following MTX concentrations: 0, 0.3125, 0.625, 1.25 and 2.5 mg/L.

L. lactis = conditions: cited from earlier work
[2] = system: folate overproducing L. plantarum strains; assay: Growth rate of folate overproducing L. plantarum strains (pNZ7019, pNZ7021) on modified CDM with methotrexate; type: cell-based, Lactobacillus plantarum; conditions: 2.5 mg/L MTX
Procedure: as §1, §2

[3] = system: L. plantarum strains (wild type, pNZ7019, pNZ7021); assay: Growth rate of L. plantarum strains on CDM with folate dependent metabolites and methotrexate; type: cell-based, Lactobacillus plantarum; conditions: 0 to 2.5 mg/L MTX
Procedure: as §1, §2

CN(Cc1cnc2nc(N)nc(N)c2n1)c1ccc(C(=O)N[C@@H](CCC(=O)O)C(=O)O)cc1 [MTX, methotrexate]
growth inhibition of the wild type strain ([1]; 2.5 mg/L MTX): complete growth inhibition
growth rate (μ) of the wild type ([1]; 1.25, 1.5, 2.0 and 2.5 mg/l MTX, medium lacking folate dependent metabolites): < 0.05 h⁻¹
growth inhibition of the wild type strain ([1]; between 0 and 2.5 mg/L MTX): dose dependent growth inhibition
sensitivity to antifolate (L. lactis): insensitive
growth of the folate overproducing strains [2]: grew well
growth inhibition in the presence of folate dependent metabolites [3]: none of the tested strains was significantly inhibited

COc1cc(Cc2cnc(N)nc2N)cc(OC)c1OC [trimethoprim]
sensitivity to antifolate (L. lactis): insensitive

Source: patent US20080118943A1 (priority 2005, published 2008)
